Test results: US20140011755A1, “Cardiac Glycosides for Treating Autoimmune Disease” (Department of Veterans Affairs, priority 2010, published 2014)

Key:
phospho-STAT3 (Y705) = assay: STAT3 phosphorylation in cells from CIA mice (flow cytometry, Western blot); type: cell-based; settings: splenic B cells from CIA mice, 33 nM, 30 minutes / 0-60 minutes
Description: FIG. 15. […] Flow cytometry was performed using the FACSAria II (Bectin Dickenson). […] Lysates were quantified for total protein using the Nanodrop, and verification was performed by BCA (Pierce). Lysates were loaded onto SDS-PAGE and transferred to PVDF (Millipore). Membranes were blotted for phospho-STAT3 (Y705) and beta-actin.
Cardiac glycosides were administered at endogenous levels (sub- and nano Molar) or therapeutic levels (nano Molar) to modulate transcription factor activity and gene expression. Alteration of STAT1 activity has been observed in Alzheimer's disease and susceptibility to lethal intracellular pathogenic diseases (Kitamura et al, 1997; Chapgier et al, 2009). Aberrant STAT2 levels have been linked to inflammatory disease such as Crohn's disease (CD), ulcerative colitis (UC) and inflammatory bowel disease (IBD), and cancers such as colorectal and skin cancers (Gamero et al, 2010). STAT3 signaling is a critical component of Th17-dependent autoimmune processes. […] Mice with targeted deletion of Stat3 in T cells are resistant to experimental autoimmune encephalomyelitis, which is a multiple sclerosis (MS) model. […] STAT phosphorylation can be assessed by phospho-flow cytometric analysis, Western immunoblot and ELISA of circulating PBMCs or of biopsied tissues.

SLE-like disease = assay: MRL-Ipr mouse model of systemic lupus erythematosus; type: in vivo, MRL-Ipr female mice
Description: FIG. 16. […] SLE-like disease progression in MRL-Ipr female mice (Jackson Laboratories) was evaluated. Briefly, 10 mice per treatment arm were followed for the development of SLE-like disease over the course of 16 weeks. […] Animals were scored on a weekly basis for proteinuria and survived until 23 weeks of age. Data represent the average proteinuria concentration in urine collected from each mouse using Uristix (Bayer Corp.). Error bars represent SEM. The Mann-Whitney test was used to determine significance between vehicle and digitoxin groups. Asterisks represent significant P values <0.01.
FIG. 17. […] At endpoint, 23 week old female MRL-Ipr mice were sacrificed and kidneys were fixed, embedded in paraffin, sectioned longitudinally and stained for glomeruli with periodic acid-Schiff stain (Histotec). (A) Depiction of a section taken from a representative vehicle treated kidney. (B) Depiction of a section taken from a representative digitoxin treated kidney.
FIG. 18. […] Endpoint serum titers were taken for each mouse and the concentration of anti-double-stranded DNA (ANA) antibodies were assessed (A). […] ANA antibodies were measured using ELISA (Alpha Diagnostic International). Error bars represent the SEM. The student t-test was used to determine significance. Asterisks represent significant P values.
Cardiac glycosides are used for the treatment of systemic lupus erythematosus and other forms of multi-system inflammatory diseases. […] Studies are conducted to determine the ability of cardiac glycosides to treat SLE. The effectiveness of cardiac glycosides at treating SLE disease progression in MRL-Ipr female mice (Jackson Laboratories) was evaluated. Briefly, 10 mice per experimental arm were followed for the development of SLE disease. […] Animals were scored on a weekly basis for proteinuria and survived until 23 weeks of age (FIG. 16). Weekly proteinuria monitoring was performed using Uristix (Bayer Corp.). […] Endpoint serum titres of double-stranded DNA (ANA) antibodies for each mouse were assessed (FIG. 18 A). […] ANA antibodies were measured using ELISA (Alpha Diagnostic International). […]

B cells from CIA mice = assay: RT-PCR cytokine gene expression in cells purified from CIA mice; type: cell-based; settings: 33 nM and 100 nM, 45 minutes
Description: IL-10 (FIG. 20 A) and TGFβ1 (FIG. 20 B) levels were quantified. Samples were normalized against Ywhaz1 and Hprt1 housekeeping genes. […] Samples were examined in triplicates and the error bars represent the SEM. […] After 30 minutes, cells were washed, lysed and mRNA was isolated with Trizol (Invitrogen). RT-PCR was performed on mRNA and samples were normalized against housekeeping genes, Ywhaz1 and Hprt1. Data represent the average fold change in IL-10 gene expression compared to media alone. Error bars represent SEM of triplicates.
RT-PCR was performed and TGFβ1, IL-10 and IL-6 mRNA levels were quantified. Sample cDNA levels were normalized against housekeeping genes Ywhaz1 and Hprt1. Data represent the average fold change in IL-10 gene expression compared to media alone. Error bars represent SEM of triplicates.
RT-PCR was performed and TGFβ1 and IL-10 levels were quantified and samples were normalized against Ywhaz1 and Hprt1. Data represent the average fold gene induction of triplicates and error bars represent SEM.

[1] = test system: naïve CD4+ T cells, regulatory T cells; assay: Mixed lymphocyte study, pre-treated CIA B cells with naïve CD4+ T cells; type: cell-based, mice; settings: B cells treated 33 nM for 1 hr, co-culture 72 hr
Description: FIG. 25. […] (A) Representative data from mixed lymphocyte studies. […] B cells were washed, replated in complete RPMI supplemented with BAFF (1 ng/mL), anti-CD3 antibody (4 μg/mL) and were added to 5×10^5 naïve CD4^+ T cells purified by MACS. Cells were incubated for 72 hr prior to harvest. IL-6, IL-10, TGFβ and IL-17 cytokine levels were measured by ELISA (R&D Systems, Peprotech, and eBiosciences). Data represent the average absorbance (A450) of triplicates and error bars represent the SEM. […] Cells were fixed in 4% paraformaldehyde for 15 minutes, washed twice with PBS and blocked with FACS buffer. Cells were stained for regulatory T cells using anti-TCRβ, anti-CD4, anti-CD25 and anti-FoxP3 antibodies (Cell Signaling Technologies, R&D Systems, AbCam). FACS was performed on the FACS Aria (Becton-Dickenson). Data represent the average population in 500,000 cells from 4 mice per treatment group. Error bars represent the SEM.
It is known that B cells can regulate T cell differentiation and in many states of autoimmune disease, an imbalance of Th1, Th2, and Th17 T cell populations exist. […] We performed studies to determine the regulatory effector function of B cells pre-treated with cardiac glycoside on T cell differentiation. […]

[2] = CHCI3/16% aqueous methanol (MeOH); cited from earlier work

SMILES: C[C@H]1O[C@@H](O[C@H]2[C@@H](O)C[C@H](O[C@H]3[C@@H](O)C[C@H](O[C@H]4CC[C@@]5(C)[C@H](CC[C@@H]6[C@@H]5CC[C@]5(C)[C@@H](C7=CC(=O)OC7)CC[C@]65O)C4)O[C@@H]3C)O[C@@H]2C)C[C@H](O)[C@@H]1O [Digitoxin, digitoxin]
- STAT3 phosphorylation (Y705) (phospho-STAT3 (Y705)): stimulate STAT3 phosphorylation
- disease severity (average proteinuria) in experimental lupus (SLE-like disease; 0.6 mg/kg every-4-days sublingual from week 8, 10 mice per arm, Mann-Whitney P<0.01): decrease disease severity
- kidney pathology (periodic acid-Schiff stained glomeruli) (SLE-like disease; 23 week old mice at endpoint, 0.6 mg/kg every-4-days sublingual): decrease kidney pathology
- endpoint serum anti-double-stranded DNA (ANA) antibodies (SLE-like disease; endpoint serum, ELISA): inhibit autoantibody production
- IL-6 mRNA expression in B cells (B cells from CIA mice): inhibit IL-6 expression
- IL-10 mRNA expression in B cells (B cells from CIA mice): induce
- TGFβ1 mRNA expression in B cells (B cells from CIA mice): induce
- induction of regulatory T cells in vitro [1]: induce regulatory T cells
- Partition Coefficient [2]: 96.5
